Like-named read-outs stand apart in the source and are kept apart here. Starred links: 1 amine or outer side, 2 acyl side, 3 side chain; linkers in the order of their positions; H or OH if unused. Non-standard residues stand in square brackets, D forms with d. Residues, ends and D or L forms follow the SMILES beside them. ξ: configuration not given here. *: point of attachment. Oic = O=C(O)[C@@H]1C[C@@H]2CCCC[C@@H]2N1; Phe(4-Cl) = N[C@@H](Cc1ccc(Cl)cc1)C(=O)O; γGlu = O=C(O)[C@H](CCC(=O)[*:2])N[*:1]; d(β3hF) = N[C@@H](CC(=O)O)Cc1ccccc1; NMeR = CN[C@@H](CCCNC(=N)N)C(=O)O; Palmitoyl = CCCCCCCCCCCCCCCC(=O)*; Tridecanoyl = CCCCCCCCCCCCC(=O)*; hArg = N=C(N)NCCCC[C@H](N)C(=O)O; Cha = N[C@@H](CC1CCCCC1)C(=O)O; αMeL = CC(C)C[C@](C)(N)C(=O)O; αMeP = C[C@@]1(C(=O)O)CCCN1; ξαMeL = CC(C)CC(C)(N)C(=O)O; Nle = CCCC[C@H](N)C(=O)O; ξαMeP = CC1(C(=O)O)CCCN1; ξβ3hV = CC(C)C(N)CC(=O)O; AEEA = NCCOCCOCC(=O)O; Aib = CC(C)(N)C(=O)O
Assays:
[1] = rat plasma; conditions: 37° C., up to 4 hr
[2] = In vitro stability in rat liver homogenate; format: in vitro ADME; conditions: tissue homogenate
Procedure, shortened: (§1)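 Apelin peptides were spiked at 5 μM final into rat plasma, liver homogenate or kidney homogenate and incubated at 37° C. for up to 4 hr. Aliquots were quenched with MeOH containing internal standard, centrifuged, and supernatants analyzed by high resolution LC-MS.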

[3] = In vitro stability in rat kidney homogenate; format: in vitro ADME; conditions: rat, tissue homogenate
Procedure, shortened: as §1

[4] = biological target: T1, rat APJ receptor (Rattus norvegicus, UniProt Q9JHG3); assay: [35S] GTPγS assay, rat APJ receptor; format: biochemical
T1 construct: expressed in transfected cells
T1 sequence (Q9JHG3 1-377): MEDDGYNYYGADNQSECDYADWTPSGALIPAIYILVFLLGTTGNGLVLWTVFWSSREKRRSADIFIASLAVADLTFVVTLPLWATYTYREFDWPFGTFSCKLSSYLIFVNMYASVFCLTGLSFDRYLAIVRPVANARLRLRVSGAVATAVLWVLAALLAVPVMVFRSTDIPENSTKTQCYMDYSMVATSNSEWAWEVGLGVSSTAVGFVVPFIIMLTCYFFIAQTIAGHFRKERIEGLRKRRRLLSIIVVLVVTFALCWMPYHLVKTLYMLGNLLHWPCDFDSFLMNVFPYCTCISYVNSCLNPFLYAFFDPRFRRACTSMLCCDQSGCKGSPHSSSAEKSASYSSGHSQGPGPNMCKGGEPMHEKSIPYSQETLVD
Experimental: The membranes were incubated with modified peptides in the assay buffer. […] Bound [^35S] GTPγS was separated from free radiolabel by filtration. The filter bound radioactivity was determined by liquid scintillation counting.

[5] = biological target: T2, human APJ receptor (Homo sapiens, UniProt P35414); assay: [35S] GTPγS assay, human APJ receptor; format: biochemical
T2 construct: expressed in transfected cells
T2 sequence (P35414 1-380): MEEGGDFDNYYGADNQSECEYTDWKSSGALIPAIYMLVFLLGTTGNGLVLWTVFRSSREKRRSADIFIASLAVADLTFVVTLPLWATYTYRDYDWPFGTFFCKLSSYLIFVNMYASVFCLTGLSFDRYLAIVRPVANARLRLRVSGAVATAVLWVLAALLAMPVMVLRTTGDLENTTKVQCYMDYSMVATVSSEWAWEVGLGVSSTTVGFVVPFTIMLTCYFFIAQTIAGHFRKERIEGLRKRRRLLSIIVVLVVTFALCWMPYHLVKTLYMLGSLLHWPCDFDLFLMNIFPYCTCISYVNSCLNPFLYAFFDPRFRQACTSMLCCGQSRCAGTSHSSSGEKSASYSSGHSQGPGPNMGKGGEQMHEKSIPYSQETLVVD

[6] = In vitro stability in rat plasma; format: in vitro ADME
Procedure, shortened: as §1

[7] = rat APJ receptor, read-out: EC50 Rat APJ Receptor

Compound | not cleaved [1] | remaining at 4 h, 5 μM [2] | remaining at 4 h, 5 μM [3] | remaining at 4 h, 5 μM [6] | other results
{Palm} [AC4Abu] [Aeea] [Aeea] q R P [NMeArg] [Cha] S H K G [Oic] [Nle] [Aib] [D-BhPhe] {COOH} | >90.0 % remaining at 4 hours | – | – | – | –
CCCCCCCCCCCCCCCC(=O)N[C@@H](CCC(=O)NCCOCCOCC(=O)NCCOCCOCC(=O)N[C@H](CCC(N)=O)C(=O)N[C@@H](CCCCNC(=N)N)C(=O)N1CCC[C@H]1C(=O)N[C@H](CCCNC(=N)N)C(=O)N[C@@H](CC1CCCCC1)C(=O)N[C@@H](CO)C(=O)N[C@@H](Cc1c[nH]cn1)C(=O)N[C@@H](CCCCN)C(=O)NCC(=O)N1[C@H](C(=O)N[C@@H](CCCC)C(=O)N2CCC[C@H]2C(=O)N[C@@H](CC(=O)O)Cc2ccccc2)C[C@@H]2CCCC[C@@H]21)C(=O)O [compound 614] ({Palmitoyl-γGlu-AEEA-AEEA}-[dQ][hArg]P[dR][Cha]SHKG[Oic][Nle]P[d(β3hF)]-OH) | – | 11% | 9% | 90% | EC50 [4, 7]: 10.3 nM; EC50 ([5]; human APJ receptor): 1.25 nM
{hexanoyl} [AC4Abu] [Aeea] [Aeea] Q R P [NMeArg] [Cha] S H K G [Oic] [Nle] [Aib] [4-Cl-F] {COOH} | >90.0 % remaining at 4 hours | – | – | – | –
CCCCCCCCCCCCC(=O)N[C@@H](CCC(=O)NCCOCCOCC(=O)NCCOCCOCC(=O)N[C@@H](CCC(N)=O)C(=O)N[C@@H](CCCNC(=N)N)C(=O)N1CCC[C@H]1C(=O)N[C@@H](CCC(=O)O)C(=O)N[C@@H](CC(C)C)C(=O)N[C@@H](CO)C(=O)N[C@@H](Cc1c[nH]cn1)C(=O)N[C@@H](CCCCN)C(=O)NCC(=O)N1CCC[C@H]1C(=O)N[C@@H](CCCC)C(=O)N1CCC[C@H]1C(=O)N[C@@H](Cc1ccc(Cl)cc1)C(=O)O)C(=O)O [compound 477] ({Tridecanoyl-γGlu-AEEA-AEEA}-QRPELSHKGP[Nle]P[Phe(4-Cl)]-OH) | – | < 1% | 2% | 64% | EC50 ([5]; Table 16): 0.423 nM
CCCCCCCCCCCCC(=O)N[C@@H](CCC(=O)NCCOCCOCC(=O)NCCOCCOCC(=O)N[C@H](CCC(N)=O)C(=O)N[C@@H](CCCNC(=N)N)C(=O)N1CCC[C@H]1C(=O)N[C@@H](CCC(=O)O)C(=O)N[C@@H](CC1CCCCC1)C(=O)N[C@@H](CO)C(=O)N[C@@H](Cc1c[nH]cn1)C(=O)N[C@@H](CCCCN)C(=O)NCC(=O)N1[C@H](C(=O)N[C@@H](CCCC)C(=O)NC(C)(C)C(=O)N[C@@H](Cc2ccc(Cl)cc2)C(=O)O)C[C@@H]2CCCC[C@@H]21)C(=O)O [compound 526] ({Tridecanoyl-γGlu-AEEA-AEEA}-[dQ]RPE[Cha]SHKG[Oic][Nle][Aib][Phe(4-Cl)]-OH) | – | 5% | < 1% | > 90% | EC50 ([5]; Table 16): 2.02 nM
CCCCCCCCCCCCC(=O)N[C@@H](CCC(=O)NCCOCCOCC(=O)NCCOCCOCC(=O)N[C@@H](CCC(N)=O)C(=O)N[C@@H](CCCNC(=N)N)C(=O)N1CCC[C@H]1C(=O)N[C@@H](CCCCNC(=N)N)C(=O)N[C@@](C)(CC(C)C)C(=O)N[C@@H](CO)C(=O)N[C@@H](Cc1c[nH]cn1)C(=O)N[C@@H](CCCCN)C(=O)NCC(=O)N1[C@H](C(=O)N[C@@H](CCCC)C(=O)N2CCC[C@H]2C(=O)N[C@@H](Cc2ccc(Cl)cc2)C(=O)O)C[C@@H]2CCCC[C@@H]21)C(=O)O [compound 360] ({Tridecanoyl-γGlu-AEEA-AEEA}-QRP[hArg][αMeL]SHKG[Oic][Nle]P[Phe(4-Cl)]-OH) | – | 2.5% | 2% | 81.5% | EC50 ([5]; Table 16): 0.0519 nM
{Palm} [AC4Abu] [Aeea] [Aeea] q R P [NMeArg] [Cha] S H K G [Pip] [Nle] [Nip] [4-Cl-F] {COOH} | >90.0 % remaining at 4 hours | – | – | – | –
{Palm} [AC4Abu] [Aeea] [Aeea] q R P [NMeArg] [Cha] S H K G [Oic] [Nle] [BhPro] [D-BhPhe] {COOH} | >90.0 % remaining at 4 hours | – | – | – | –

The next lines start with results.

not cleaved [1] | remaining at 4 h, 5 μM [2] | remaining at 4 h, 5 μM [3] | remaining at 4 h, 5 μM [6] | Compound | other results
>90.0 % remaining at 4 hours | – | – | – | {Acetyl-NH} [hArg] r Q [hArg] P E [NMeLeu] S H K G [Oic] [pI-Phe] P [D-Bip] {COOH} | –
– | < 1% | 8% | > 90% | CCCCCCCCCCCCC(=O)N[C@@H](CCC(=O)NCCOCCOCC(=O)NCCOCCOCC(=O)N[C@@H](CCC(N)=O)C(=O)N[C@@H](CCCNC(=N)N)C(=O)N1CCC[C@H]1C(=O)N(C)[C@@H](CCCNC(=N)N)C(=O)N[C@@H](CC1CCCCC1)C(=O)N[C@@H](CO)C(=O)N[C@@H](Cc1c[nH]cn1)C(=O)N[C@@H](CCCCN)C(=O)NCC(=O)N1CCC[C@@]1(C)C(=O)N[C@@H](CCCC)C(=O)N1CCC[C@H]1C(=O)N[C@@H](Cc1ccc(Cl)cc1)C(=O)O)C(=O)O [compound 418] ({Tridecanoyl-γGlu-AEEA-AEEA}-QRP[NMeR][Cha]SHKG[αMeP][Nle]P[Phe(4-Cl)]-OH) | EC50 ([4]; Table 16, read-out: EC50 Rat APJ Receptor): 0.253 nM; EC50 ([5]; Table 16): 0.147 nM
>90.0 % remaining at 4 hours | – | – | – | {PDA}[AC4Abu][Aeea][Aeea][hArg]rQ[hArg]Pr[NMeLeu]SHKG[Oic][pI-Phe]P[D-Bip]{COOH} | –
>90.0 % remaining at 4 hours | – | – | – | {Acetyl-NH} [hArg] E Q [hArg] P r [NMeLeu] S H K G [Oic] [pI-Phe] P [D-Bip] {COOH} | –
90 % remaining at 4 hours | – | – | – | {Palm} [AC4Abu] [Aeea] [Aeea] q [hArg] P r [Cha] S H K G [Oic] [Nle] P [D-BhPhe] {COOH} | –
– | < 1% | 7.58% | 27.9% | CCCC[C@H](NC(=O)[C@@H]1C[C@@H]2CCCC[C@@H]2N1C(=O)CNC(=O)[C@H](CCCCN)NC(=O)[C@H](Cc1c[nH]cn1)NC(=O)[C@H](CO)NC(=O)[C@H](CC1CCCCC1)NC(=O)[C@H](CCCNC(=N)N)N(C)C(=O)[C@@H]1CCCN1C(=O)[C@H](CCCCNC(=N)N)NC(=O)[C@H](CCC(N)=O)NC(C)=O)C(=O)N1CCC[C@H]1C(=O)N[C@@H](Cc1ccc(Cl)cc1)C(=O)O [compound 61] (Ac-Q[hArg]P[NMeR][Cha]SHKG[Oic][Nle]P[Phe(4-Cl)]-OH) | EC50 [4, 7]: 0.189 nM; EC50 ([5]; human APJ receptor): 0.159 nM
– | 11% | 89% | 66% | CCCCCCCCCCCCC(=O)N[C@@H](CCC(=O)NCCOCCOCC(=O)NCCOCCOCC(=O)NC(CC(=O)N[C@@H](CCCNC(=N)N)C(=O)N1CCC[C@H]1C(=O)N(C)[C@@H](CCCNC(=N)N)C(=O)NC(C)(CC(C)C)C(=O)N[C@@H](CO)C(=O)N[C@@H](Cc1c[nH]cn1)C(=O)N[C@@H](CCCCN)C(=O)NCC(=O)N1[C@H](C(=O)N[C@@H](CCCC)C(=O)N2CCC[C@H]2C(=O)N[C@@H](Cc2ccc(Cl)cc2)C(=O)O)C[C@@H]2CCCC[C@@H]21)C(C)C)C(=O)O (stereo partly drawn) [compound 374] ({Tridecanoyl-γGlu-AEEA-AEEA}-[ξβ3hV]RP[NMeR][ξαMeL]SHKG[Oic][Nle]P[Phe(4-Cl)]-OH) | EC50 [4, 7]: 0.503 nM; EC50 ([5]; human APJ receptor): 0.305 nM
>90.0 % remaining at 4 hours | – | – | – | {TDA}[AC4Abu][Aeea][Aeea][hArg]rQ[hArg]Pr[NMeLeu]SHKG[Oic][pI-Phe]P[D-Bip]{COOH} | –
>90.0 % remaining at 4 hours | – | – | – | {Palm} [AC4Abu] [Aeea] [Aeea] q R P [NMeArg] [Cha] S H K G [Oic] [Nle] [Inp] [4-Cl-F] {COOH} | –
>90.0 % remaining at 4 hours | – | – | – | {Palm} [AC4Abu] [Aeea] [Aeea] q R P [NMeArg] [Cha] S H K G [Oic] [Nle] [aMePro] [D-BhPhe] {COOH} | –
>90.0 % remaining at 4 hours | – | – | – | {Acetyl-NH} E r Q [hArg] P r [NMeLeu] S H K G [Oic] [pI-Phe] P [D-Bip] {COOH} | –
– | 40% | 18% | > 90% | CCCCCCCCCCCCC(=O)N[C@@H](CCC(=O)NCCOCCOCC(=O)NCCOCCOCC(=O)NC(CC(=O)N[C@@H](CCCNC(=N)N)C(=O)N1CCCC1(C)C(=O)N[C@@H](CCCCNC(=N)N)C(=O)NC(C)(CC(C)C)C(=O)N[C@@H](CO)C(=O)N[C@@H](Cc1c[nH]cn1)C(=O)N[C@@H](CCCCN)C(=O)NCC(=O)N1[C@H](C(=O)N[C@@H](CCCC)C(=O)N2CCCC2(C)C(=O)N[C@@H](Cc2ccc(Cl)cc2)C(=O)O)C[C@@H]2CCCC[C@@H]21)C(C)C)C(=O)O (stereo partly drawn) [compound 552] ({Tridecanoyl-γGlu-AEEA-AEEA}-[ξβ3hV]R[ξαMeP][hArg][ξαMeL]SHKG[Oic][Nle][ξαMeP][Phe(4-Cl)]-OH) | EC50 ([5]; human APJ receptor): 1.95 nM

From patent publication US11807693B2 (priority 2014, dated 2023)
